{
  "source": "paper PMC8951016",
  "about": "“Computational Design and Biological Evaluation of Analogs of Lupin Peptide P5 Endowed with Dual PCSK9/HMG-CoAR Inhibiting Activity” (Pharmaceutics, 2022)",
  "key": {"LDL uptake, HepG2 cells [1]": {"test_system": "LDL uptake, HepG2 cells", "test": "Fluorescent LDL uptake in HepG2 cells (peptide alone)", "type": "cell-based, human", "details": "50 µM, vs control, average ± SD, four independent experiments in duplicate", "description": "(§1) HepG2 cells (3 × 10^4/well) were seeded in 96-well plates and kept in complete growth medium for 2 days before treatment. The third day, cells were washed with PBS and then starved overnight (O/N) in DMEM without FBS and antibiotics. After starvation, they were treated with 4.0 μg/mL PCSK9 and 4.0 μg/mL PCSK9 + P5 and P5 analogs peptides (50 µM), and vehicle (H2O) for 2 h with at 37 °C under 5% CO2 atmosphere. Fluorescent LDL-uptake was finally assessed following optimized protocol. See Supplementary Materials for further details.\n(§2) PBS for 1.5 h at RT. LDLR primary antibody solution (1:3000 in 5% BSA in PBS, 25 µL/well) was incubated O/N at +4 °C. […] The reaction was stopped with 2 M H2SO4 and then the absorbance at 450 nm was measured using the microplate reader Synergy H1 (Winoo-ski, VT, USA). After the read, cells were stained by adding 1 X Janus Green stain, incubat-ing for 5 min at RT. […]\n(§3) Afterward 100 µL 0.5 M HCl for well were added and incubated for 10 min. After 10 sec-onds shaking, the OD at 595 nm was measured using the microplate reader Synergy H1 […]\n(§4) Fluorescent LDL Uptake. […] The degree of LDL uptake was measured using the Synergy H1 fluo-rescent plate reader (Winooski, VT, USA) (excitation and emission wavelengths 540 and 570 nm, respectively). Fluorescent LDL-uptake was finally assessed following optimized […]"}, "LDL uptake, HepG2 cells [2]": {"test_system": "LDL uptake, HepG2 cells", "details": "cited from earlier work", "excerpt": "In fact, in our previous paper, by applying a computational approach such as the one here applied, we designed and biologically evaluated two poly-imidazole derivatives endowed with PCSK9 inhibiting activity."}, "LDL uptake, HepG2 cells [3]": {"test_system": "LDL uptake, HepG2 cells", "test": "Fluorescent LDL uptake in HepG2 cells in the presence of PCSK9", "type": "cell-based, human", "details": "50 µM + PCSK9 4 µg/mL; Figure 3C", "description": "as §1, §2, §3, §4"}, "PCSK9": {"test_system": "PCSK9", "test": "Western blot, PCSK9 protein level in HepG2", "type": "cell-based, human", "details": "active at 50 µM in hepatic cells vs 250 µM; PCSK9 protein level and secretion", "description": "A total of 1.5 × 10^5 HepG2 cells/well (24-well plate) were treated with 50 μM of P5 and P5 analogs for 24 h. Immunoblotting experiments were performed using optimized protocol. See Supplementary Materials for further details.\nas §2, with “°C. Subsequently, the primary antibody solution was discarded and each sample was washed 5 times with 100 µL/well of PBS (each wash was for 5 min at RT). Goat anti-rabbit Ig-HRP secondary antibody solution (Santa Cruz) (1:6000 in 5% BSA in PBS, 50 µL/well), was added and incubated 1 h at RT.” for “°C.”\nas §3, §4"}, "LDLR": {"test_system": "LDLR", "design": "method as in 3 sources, ref 48 = [48]; doi:10.1111/jfbc.12757; 48. Lammi C. Zanoni C. Arnoldi A. Aiello G. […] (P3), a peptide from lupin protein, absorbed by Caco-2 cells, modulates cholesterol metabolism in HepG2 cells via SREBP-1 activation J. Food B ||| ref 22 = [22]; doi:10.1016/j.jff.2017.02.009; 22. Zanoni C. Aiello G. Arnoldi A. Lammi C. Investigations on the hypocholesterolaemic activity of […] and LTFPGSAED, two peptides from lupin β-conglutin: Focus on LDLR and PCSK9 pathways J. Fu ||| ref 24 = [24]; PMID 33808034; doi:10.3390/nu13030863; 24. Lammi C. Aiello G. Bollati C. Li J. Bartolomei M. Ranaldi G. Ferruzza S. Fassi E.M.A. Grazioso G. Sambuy Y. Trans-Epithelial Transport, Metabolism, and Biological Activity Assessment of the Multi-", "details": "through activation of SREBP-2; cited from earlier work"}},
  "data": [
    {"sequence": "LILPKHSDAD [Peptide P5, natural peptide derived from a peptic lupin protein hydrolysate]", "values": [
      {"measurement": "ability of HepG2 cells to uptake extracellular LDL", "setting": "LDL uptake, HepG2 cells [1]", "value": "203.8 ± 40.67", "unit": "%"},
      {"measurement": "uptake of extracellular LDL by HepG2 (P5, earlier work, words)", "setting": "LDL uptake, HepG2 cells [2]", "value": "improved ability of HepG2 cells to uptake extracellular LDL"},
      {"measurement": "ability to absorb LDL in presence of PCSK9", "setting": "LDL uptake, HepG2 cells [3]", "value": "improved"},
      {"measurement": "fold potency vs YVVNPDNNEN", "setting": "PCSK9", "value": "5 -fold"},
      {"measurement": "LDLR protein level in HepG2 (P5, earlier work, words)", "setting": "LDLR", "value": "increases the LDLR protein level"}
    ]}
  ]
}
